Test results from patent US9676704B2, “Pesticidal compositions and processes related thereto” (Dow AgroSciences LLC, priority 2014, dated 2017).

Legend:
Beet Armyworm (BAW) = experiment: Bioassays on BAW, 128-well diet tray assay; type: in vivo; conditions: Spodoptera exigua; for mortality at 50 µg/cm2: 168 h, 50 μg/cm^2 on artificial diet, second instar larvae, five to seven days, 25° C., read-out: BAW % Control (or Mortality) rating; for mortality at 0.05 µg/cm2: 0.05 μg/cm^2; for mortality at 0.05 µg/cm2 / mortality at 0.5 µg/cm2 / mortality at 5 µg/cm2: read-out: BAW Percent control (or mortality); for mortality at 0.5 µg/cm2: 0.5 μg/cm^2; for mortality at 5 µg/cm2: 5 μg/cm^2
Protocol: Bioassays on BAW were conducted using a 128-well diet tray assay. one to five second instar BAW larvae were placed in each well (3 mL) of the diet tray that had been previously filled with 1 mL of artificial diet to which 50 μg/cm^2 of the test compound (dissolved in 50 μL of 90:10 acetone-water mixture) had been applied (to each of eight wells) and then allowed to dry. Trays were covered with a clear self-adhesive cover, and held at 25° C., 14:10 light-dark for five to seven days. Percent mortality was recorded for the larvae in each well; activity in the eight wells was then averaged. The results are indicated in the tables entitled “Table ABC: Assay Results (F)”, “Table ABCD: Assay Results (C)”, and “Table ABCDE: Assay Results (P)” (See Table Section).
(§1) Bioassays on BAW and CL were conducted according to the procedures outlined in Example A: Bioassays on Beet Armyworm (“BAW”) and Cabbage Looper (“CL”) using the following concentrations: 5, 0.5, and 0.05 μg/cm^2.

Cabbage Looper (CL) = experiment: Bioassays on CL, 128-well diet tray assay; type: in vivo; conditions: Trichoplusia ni; for mortality at 50 µg/cm2: 168 h, 50 μg/cm^2 on artificial diet, second instar larvae, five to seven days, 25° C., read-out: CL % Control (or Mortality) rating; for mortality at 0.05 µg/cm2: 0.05 μg/cm^2; for mortality at 0.05 µg/cm2 / mortality at 0.5 µg/cm2 / mortality at 5 µg/cm2: read-out: CL Percent control (or mortality); for mortality at 0.5 µg/cm2: 0.5 μg/cm^2; for mortality at 5 µg/cm2: 5 μg/cm^2
Protocol: Bioassays on CL were conducted using a 128-well diet tray assay. One to five second instar CL larvae were placed in each well (3 mL) of the diet tray that had been previously filled with 1 mL of artificial diet to which 50 μg/cm^2 of the test compound (dissolved in 50 μL of 90:10 acetone-water mixture) had been applied (to each of eight wells) and then allowed to dry. Trays were covered with a clear self-adhesive cover, and held at 25° C., 14:10 light-dark for five to seven days. Percent mortality was recorded for the larvae in each well; activity in the eight wells was then averaged. The results are indicated in the table entitled “Table ABC: Assay Results (F)”, “Table ABCD: Assay Results (C)”, and “Table ABCDE: Assay Results (P)” (See Table Section).
as §1

[1] = test system: Yellow Fever Mosquito (YFM); type: in vivo, Aedes aegypti; conditions: 15 μL of diluted 4000 ppm master solution per well, about 1 day-old larvae, 3 days
Protocol: Master plates containing 400 μg of a molecule dissolved in 100 μL of dimethyl sulfoxide (DMSO) (equivalent to a 4000 ppm solution) are used. A master plate of assembled molecules contains 15 μL per well. To this plate, 135 μL of a 90:10 water:acetone mixture is added to each well. A robot (Biomek® NXP Laboratory Automation Workstation) is programmed to dispense 15 μL aspirations from the master plate into an empty 96-well shallow plate (“daughter” plate). There are 6 reps (“daughter” plates) created per master. The created daughter plates are then immediately infested with YFM larvae. The day before plates are to be treated, mosquito eggs are placed in Millipore water containing liver powder to begin hatching (4 g. into 400 mL). After the daughter plates are created using the robot, they are infested with 220 μL of the liver powder/larval mosquito mixture (about 1 day-old larvae). After plates are infested with mosquito larvae, a non-evaporative lid is used to cover the plate to reduce drying. Plates are held at room temperature for 3 days prior to grading. After 3 days, each well is observed and scored based on mortality. The results are indicated in the table entitled “Table ABC: Assay Results (F)” and “Table ABCD: Assay Results (C)” (See Table Section). Pesticidally Acceptable Acid Addition Salts, Salt Derivatives, Solvates, Ester Derivatives, Polymorphs, Isotopes and Radionuclides

| SMILES | mortality at 50 µg/cm2 (Beet Armyworm (BAW)) [%] | mortality at 50 µg/cm2 (Cabbage Looper (CL)) [%] | YFM % Control (or Mortality) rating [1] | mortality at 0.05 µg/cm2 (Beet Armyworm (BAW)) [%] | mortality at 0.5 µg/cm2 (Beet Armyworm (BAW)) [%] | mortality at 5 µg/cm2 (Beet Armyworm (BAW)) [%] | mortality at 0.05 µg/cm2 (Cabbage Looper (CL)) [%] | mortality at 0.5 µg/cm2 (Cabbage Looper (CL)) [%] | mortality at 5 µg/cm2 (Cabbage Looper (CL)) [%] |
| --- | --- | --- | --- | --- | --- | --- | --- | --- | --- |
| C[C@H](NC(=O)CCCC(F)(F)F)NC(=O)c1ccc(/C=C/C(c2cc(Cl)c(Cl)c(Cl)c2)C(F)(F)F)cc1C(F)(F)F (stereo partly drawn) [Compound F10, 4-((E)-4,4,4-Trifluoro-3-(3,4,5-trichlorophenyl)but-1-en-1-yl)-2-(trifluoromethyl)-N—((R)-1-(5,5,5-trifluoropentanamido)ethyl)benzamide] | 50 to 100 | 50 to 100 | A (80-100) |  |  |  |  |  |  |
| CCCCC(=O)N[C@@H](C)NC(=O)c1ccc(/C=C/C(c2cc(Cl)c(Cl)c(Cl)c2)C(F)(F)F)cc1C(F)(F)F (stereo partly drawn) [Compound F5, N—((R)-1-Pentanamidoethyl)-4-((E)-4,4,4-trifluoro-3-(3,4,5-trichlorophenyl)but-1-en-1-yl)-2-(trifluoromethyl)benzamide] | 50 to 100 | 50 to 100 | A (80-100) |  |  |  |  |  |  |
| CC(CC(=O)N[C@@H](C)NC(=O)c1ccc(/C=C/C(c2cc(Cl)c(Cl)c(Cl)c2)C(F)(F)F)cc1C(F)(F)F)C(F)(F)F (stereo partly drawn) [Compound F16, 4-((E)-4,4,4-Trifluoro-3-(3,4,5-trichlorophenyl)but-1-en-1-yl)-N-((1R)-1-(4,4,4-trifluoro-3-methylbutanamido)ethyl)-2-(trifluoromethyl)benzamide] | 50 to 100 | 50 to 100 | A (80-100) |  |  |  |  |  |  |
| Cc1cc(/C=C/C(c2cc(Br)c(Cl)c(Br)c2)C(F)(F)F)ccc1C(=O)N[C@H](C)NC(=O)CC(F)(F)F (stereo partly drawn) [Compound P6, 4-((E)-3-(3,5-Dibromo-4-chlorophenyl)-4,4,4-trifluorobut-1-en-1-yl)-2-methyl-N—((R)-1-(3,3,3-trifluoropropanamido)ethyl)benzamide] | 50 to 100 | 50 to 100 | A (80-100) |  |  |  |  |  |  |
| C[C@@H](NC(=O)c1ccc(/C=C/C(c2cc(Cl)c(Cl)c(Cl)c2)C(F)(F)F)cc1C(F)(F)F)NC(=O)C1(C#N)CC1 (stereo partly drawn) [Compound F14, N—((S)-1-(1-cyanocyclopropanecarboxamido)ethyl)-4-((E)-4,4,4-trifluoro-3-(3,4,5-trichlorophenyl)but-1-en-1-yl)-2-(trifluoromethyl)benzamide] | 50 to 100 | 50 to 100 | A (80-100) |  |  |  |  |  |  |
| C[C@@H](NC(=O)c1ccc(/C=C/C(c2cc(Cl)c(Cl)c(Cl)c2)C(F)(F)F)cc1C(F)(F)F)NC(=O)C(C)(C)C(F)(F)F (stereo partly drawn) [Compound P33, N—((S)-1-(3,3,3-Trifluoro-2,2-dimethylpropanamido)ethyl)-4-((E)-4,4,4-trifluoro-3-(3,4,5-trichlorophenyl)but-1-en-1-yl)-2-(trifluoromethyl)benzamide] | 50 to 100 | 50 to 100 | A (80-100) |  |  |  |  |  |  |
| C[C@H](NC(=O)CCCC(C)(C)C)NC(=O)c1ccc(/C=C/C(c2cc(Cl)c(Cl)c(Cl)c2)C(F)(F)F)cc1C(F)(F)F (stereo partly drawn) [Compound F18, N—((R)-1-(5,5-Dimethylhexanamido)ethyl)-4-((E)-4,4,4-trifluoro-3-(3,4,5-trichlorophenyl)but-1-en-1-yl)-2-(trifluoromethyl)benzamide] | 50 to 100 | 50 to 100 | A (80-100) |  |  |  |  |  |  |
| Cc1cc(/C=C/C(c2cc(Cl)c(Cl)c(Cl)c2)C(F)(F)F)ccc1C(=O)N[C@H](C)NC(=O)CC(F)(F)F (stereo partly drawn) [Compound P22, 2-Methyl-4-((E)-4,4,4-trifluoro-3-(3,4,5-trichlorophenyl)but-1-en-1-yl)-N—((R)-1-(3,3,3-trifluoropropanamido)ethyl)benzamide] | 50 to 100 | 50 to 100 |  | 25 | 100 | 100 | 63 | 100 | 100 |
| CNCCNC(=O)c1ccc(/C=C/C(c2cc(Cl)c(Cl)c(Cl)c2)C(F)(F)F)cc1C(F)(F)F (stereo not shown) [Compound C115, (E)-N-(2-(methylamino)ethyl)-4-(4,4,4-trifluoro-3-(3,4,5-trichlorophenyl)but-1-en-1-yl)-2-(trifluoromethyl)benzamide] | 50 to 100 | 0 |  |  |  |  |  |  |  |
| C[C@H](NC(=O)CCC(F)(F)F)NC(=O)c1ccc(/C=C/C(c2cc(Cl)c(F)c(Cl)c2)C(F)(F)F)cc1C(F)(F)F (stereo partly drawn) [Compound P9, 4-((E)-3-(3,5-Dichloro-4-fluorophenyl)-4,4,4-trifluorobut-1-en-1-yl)-N—((R)-1-(4,4,4-trifluorobutanamido)ethyl)-2-(trifluoromethyl)benzamide] | 50 to 100 | 50 to 100 |  |  |  |  |  |  |  |
| C[C@H](NC(=O)CCC(F)(F)F)NC(=O)c1ccc(/C=C/C(c2cc(Cl)c(Cl)c(Cl)c2)C(F)(F)F)cc1 (stereo partly drawn) [FC1, 4-((E)-4,4,4-Trifluoro-3-(3,4,5-trichlorophenyl)but-1-en-1-yl)-N—((R)-1-(4,4,4-trifluorobutanamido)ethyl)benzamide] |  |  |  | 0 | 0 | 13 | 0 | 0 | 71 |
| Cc1cc(/C=C/C(c2cc(Cl)c(Br)c(Cl)c2)C(F)(F)F)ccc1C(=O)N[C@H](C)NC(=O)CCC(F)(F)F (stereo partly drawn) [Compound P16, 4-((E)-3-(4-Bromo-3,5-dichlorophenyl)-4,4,4-trifluorobut-1-en-1-yl)-2-methyl-N—((R)-1-(4,4,4-trifluorobutanamido)ethyl)benzamide] | 50 to 100 | 50 to 100 |  |  |  |  |  |  |  |
| C[C@H](NC(=O)CCS(C)(=O)=O)NC(=O)c1ccc(/C=C/C(c2cc(Cl)c(Cl)c(Cl)c2)C(F)(F)F)cc1C(F)(F)F (stereo partly drawn) [Compound P47, N—((R)-1-(3-(methylsulfonyl)propanamido)ethyl)-4-((E)-4,4,4-trifluoro-3-(3,4,5-trichlorophenyl)but-1-en-1-yl)-2-(trifluoromethyl)benzamide] | 50 to 100 | 50 to 100 |  |  |  |  |  |  |  |
| C[C@H](NC(=O)CCC(F)(F)F)NC(=O)c1ccc(/C=C/C(c2cc(Cl)c(Cl)c(Cl)c2)C(F)(F)F)cc1C(F)(F)F (stereo partly drawn) [Compound F1, 4-((E)-4,4,4-Trifluoro-3-(3,4,5-trichlorophenyl)but-1-en-1-yl)-N—((R)-1-(4,4,4-trifluorobutanamido)ethyl)-2-(trifluoromethyl)benzamide] | 50 to 100 | 50 to 100 |  | 100 | 100 | 100 | 97 | 100 | 100 |
| Cc1cc(/C=C/C(c2cc(Cl)c(Br)c(Cl)c2)C(F)(F)F)ccc1C(=O)N[C@H](C)NC(=O)CC(F)(F)F (stereo partly drawn) [Compound P8, 4-((E)-3-(4-Bromo-3,5-dichlorophenyl)-4,4,4-trifluorobut-1-en-1-yl)-2-methyl-N—((R)-1-(3,3,3-trifluoropropanamido)ethyl)benzamide] | 50 to 100 | 50 to 100 |  |  |  |  |  |  |  |
| O=C(CCC(F)(F)F)NCNC(=O)c1ccc(/C=C/C(c2cc(Cl)c(Cl)c(Cl)c2)C(F)(F)F)cc1C(F)(F)F (stereo not shown) [Compound F13, (E)-4-(4,4,4-Trifluoro-3-(3,4,5-trichlorophenyl)but-1-en-1-yl)-N-((4,4,4-trifluorobutanamido)methyl)-2-(trifluoromethyl)benzamide] | 50 to 100 | 50 to 100 |  |  |  |  |  |  |  |
